Reference: EP1914235A1, “CHIRAL TETRA-HYDRO BETA-CARBOLINE DERIVATIVES AND APPLICATIONS THEREOF AS ANTIPARASITIC COMPOUNDS” (Université de Lille 2 Droit et Santé, priority 2006, dated 2008)
≈ marks a conversion by molar mass, not a printed value. Where two headings read alike, the source gives them in different places.

Columns and labels:
P. falciparum K1 strain = assay: [3H]hypoxanthine drug sensitivity assay, K1 strain; format: cell-based; details: Plasmodium falciparum
Experimental: (§1) The cultures are naturally asynchronous (65-75% ring stage) and are maintained in continuous log phase growth in RPMI-1640 medium (as developed by Moore et. al. at Roswell Park Memorial Institute, sold by Sigma Aldrich) supplemented with 5% washed human A+ erythrocytes, 25 mM Hepes, […] NaHCO3, and AlbuMAXII (lipid-rich bovine serum albumin) sold GIBCO, Grand Island, NY (CM). All cultures and assays were conducted at 37°C under an atmosphere of 5% CO2 and 5% O2, with a balance of N2.
(§2) The compounds were further diluted to the appropriate concentration using complete medium RPMI-1640 supplemented with 15nM cold hypoxanthine and AlbuMAXII.
(§3) Assays were performed in sterile 96-well microtitre plates; each plate contained 100 µl of parasite culture (0.5% parasitemia, 2.5% hematocrit). Each compound was tested in triplicate and parasite growth compared to control and blank (uninfected erythrocytes) wells. After 24h of incubation at 37°C, […] of [^3H]hypoxanthine was added to each well. Cultures were incubated for a further 24 h before they were harvested onto glass-fiber filter mats. The radioactivity was counted using a Wallac Microbeta® 1450 scintillation counter. The results were recorded as counts per minute (CPM) per well at each compound concentration, control and blank wells. Percentage inhibition was calculated from comparison to blank and control wells, and IC50 values calculated using Microsoft XLFit ® line fitting software (IDBS, UK).
(§4) Both the 3D7 clone and the K1 line were used. The compounds were diluted three-fold over at 12 different concentrations with an appropriate starting concentration based on the preliminary screen. The IC50 was determined by a sigmoidal dose response analysis using Microsoft XLFit™ (IDBS, UK).

[1] = tested on: Plasmodium berghei ANKA strain; assay: In vivo antiparasitic activity in infected mice (4-day dosing, parasitemia on day 5); details: mice infected with P. berghei ANKA; for Activity at the dose 50 mg/kg (%): 50 mg/kg every day for 4 days; for Activity at the dose 10 mg/kg (%): 10 mg/kg every day for 4 days
Experimental: Female mice (TFW or BALB/c, specific pathogen free), 18-20 g, or
Infection: Blood was taken from donor mice and diluted in RPMI-1640 medium to a parasitemia of 1% (the equivalent of 1x10^7 infected erythrocytes/ml) whilst kept on ice. An inoculum of 0.2 ml was administered to each mouse by the intravenous route. At 2-4 hours post-inoculation dosing commences.
Evaluation endpoint: On day 5 blood smears of all animals (2 slides/mouse) were prepared, fixed with methanol and stained with 10% Giemsa's stain. Parasitemia was determined microscopically by counting 1000 red blood cells under oil immersion at 1000x magnification.
Each of the tested compounds of formula (I) according to the invention was prepared as a stock solution of 5 mg/ml in 10% DMSO/PBS. Insoluble compounds of formula (I) were milled with stainless steel balls for up to 24 hours to reduce particle size. Fresh dilutions were prepared each day. The route of administration of tested compounds is intra peritoneal (i.p.).
Compounds were formulated at 10 mg/kg or at 50 mg/kg in a standard suspension vehicle (0.5% carboxymethylcellulose, 0.5% benzyl alcohol, 0.4% Tween® 80 in 0.9% NaCl) for both oral and i.p. administration.
Dosing was over a 4 day period as above, and evaluation was also as above.

[2] = tested on: P. falciparum 3D7 clone of NF54; assay: [3H]hypoxanthine drug sensitivity assay, 3D7 clone; format: cell-based; details: Plasmodium falciparum, read-out: IC50 3D7(µg/ml)
Experimental: as §1, §2
as §3, with “The results were recorded as counts per minute (CPM) per well at each compound concentration, control and blank wells.” left out
The preliminary screen used the 3D7 strain. The compounds were tested at 6 concentrations (30, 10, 3, 1, 0.3, and 0.1 µg/ml).
as §4

[3] = P. falciparum 3D7, sensitive to all anti-malarials, 48 h, [3H]hypoxanthine uptake

Row | Structure (SMILES) | IC50 (P. falciparum K1 strain; K1, read-out: IC50 K1) | IC50 [2, 3] | also measured
1 | CCN(CC)CCCC(C)Nc1ccnc2cc(Cl)ccc12 (stereo not shown) [Chloroquine, reference compound] | – | – | IC50 (P. falciparum K1 strain; K1): 0.13 to 0.21 µg/mL (≈ 0.406 to 0.656 µM)
2 | O=C1[C@H]2Cc3c([nH]c4ccccc34)[C@@H](c3ccc4c(c3)OCO4)N2C(=O)CN1[C@@H]1CCN(Cc2ccccc2)C1 [Compound 6, (6R,12aR)-6-Benzo[1,3]dioxol-5-yl-2-((R)-1-benzyl-pyrrolidin-3-yl)-2,3,6,7,12,12a-hexahydro-pyrazino[1',2':1,6]pyrido [3,4-b] indole-1,4-dione] | 0.12 µg/mL (≈ 0.224 µM) | 0.1 µg/mL (≈ 0.187 µM) | Activity at the dose 50 mg/kg (%) [1]: 43%
3 | O=C1[C@H]2Cc3c([nH]c4ccccc34)[C@@H](c3ccc4c(c3)OCO4)N2C(=O)CN1C1CCN(Cc2ccccc2)CC1 [Compound 10, (6R,12aR)-6-Benzo[1,3]dioxol-5-yl-2-(1-benzyl-piperidin-4-yl)-2,3,6,7,12,12a-hexahydro-pyrazino[1',2':1,6]pyrido[3,4-b]indole-1,4-dione] | 0.01 µg/mL (≈ 0.0182 µM) | 0.27 µg/mL (≈ 0.492 µM) | Activity at the dose 10 mg/kg (%) [1]: 15%; Activity at the dose 50 mg/kg (%) [1]: 31%
4 | O=C1[C@H]2Cc3c([nH]c4ccccc34)[C@H](c3ccc4c(c3)OCO4)N2C(=O)CN1[C@@H]1CCN(Cc2ccccc2)C1 [Compound 14, (6S,12aR)-6-Benzo[1,3]dioxol-5-yl-2-((R)-1-benzyl-pyrrolidin-3-yl)-2,3,6,7,12,12a-hexahydro-pyrazino[1',2':1,6]pyrido [3,4-b]indole-1,4-dione] | 1.03 µg/mL (≈ 1.93 µM) | 0.29 µg/mL (≈ 0.542 µM) | –
5 | CN(CCN1CC(=O)N2[C@H](c3ccc4c(c3)OCO4)c3[nH]c4ccccc4c3C[C@@H]2C1=O)Cc1ccccc1 [Compound 15, (6R,12aR)-6-Benzo[1,3]dioxol-5-yl-2-[2-(benzyl-methyl-amino)-ethyl]-2,3,6,7,12,12a-hexahydro-pyrazino[1',2':1,6]pyrido [3,4-b]indole-1,4-dione] | 0.4 µg/mL (≈ 0.765 µM) | 0.6 µg/mL (≈ 1.15 µM) | –
6 | CN(CCN1CC(=O)N2[C@@H](c3ccc4c(c3)OCO4)c3[nH]c4ccccc4c3C[C@@H]2C1=O)Cc1ccccc1 [Compound 16, (6S,12aR)-6-Benzo[1,3]dioxol-5-yl-2-[2-(benzyl-methyl-amino)-ethyl]-2,3,6,7,12,12a-hexahydro-pyrazino[1',2':1,6]pyrido [3,4-b]indole-1,4-dione] | – | – | IC50 (P. falciparum K1 strain; K1, read-out: IC50 K1 (µg/ml)): 0.6 µg/mL (≈ 1.15 µM); IC50 [2]: 0.3 µg/mL (≈ 0.574 µM)
7 | CN(CCCN1CC(=O)N2[C@H](c3ccc4c(c3)OCO4)c3[nH]c4ccccc4c3C[C@@H]2C1=O)Cc1ccccc1 [Compound 17, (6R,12aR)-6-Benzo[1,3]dioxol-5-yl-2-[3-(benzyl-methyl-amino)-propyl]-2,3,6,7,12,12a-hexahydro-pyrazino[1',2':1,6]pyrido [3,4-b]indole-1,4-dione] | 0.19 µg/mL (≈ 0.354 µM) | 0.98 µg/mL (≈ 1.83 µM) | –
8 | CN(CCCN1CC(=O)N2[C@@H](c3ccc4c(c3)OCO4)c3[nH]c4ccccc4c3C[C@@H]2C1=O)Cc1ccccc1 [Compound 18, (6S,12aR)-6-Benzo[1,3]dioxol-5-yl-2-[3-(benzyl-methyl-amino)-propyl]-2,3,6,7,12,12a-hexahydro-pyrazino[1',2':1,6]pyrido [3,4-b]indole-1,4-dione] | – | – | IC50 (P. falciparum K1 strain; K1, read-out: IC50 K1 (µg/ml)): 0.28 µg/mL (≈ 0.522 µM); IC50 [2]: 1.34 µg/mL (≈ 2.5 µM)
9 | CN(C)c1ccc(CN2CC[C@@H](N3CC(=O)N4[C@H](c5ccc6c(c5)OCO6)c5[nH]c6ccccc6c5C[C@@H]4C3=O)C2)cc1 [Compound 26, (6R,12aR)-6-Benzo[1,3]dioxol-5-yl-2-[(R)-1-(4-dimethylamino-benzyl)-pyrrolidin-3-yl]-2,3,6,7,12,12a-hexahydro-pyrazino[1',2':1,6]pyrido[3,4-b]indole-1,4-dione] | 0.14 µg/mL (≈ 0.242 µM) | 0.006 µg/mL (≈ 0.0104 µM) | Activity at the dose 10 mg/kg (%) [1]: 15%; Activity at the dose 50 mg/kg (%) [1]: 17%
10 | COc1ccc(CN2CC[C@@H](N3CC(=O)N4[C@H](c5ccc6c(c5)OCO6)c5[nH]c6ccccc6c5C[C@@H]4C3=O)C2)cc1 [Compound 31, (6R,12aR)-6-Benzo[1,3]dioxol-5-yl-2-[(R)-1-(4-methoxy-benzyl)-pyrrolidin-3-yl]-2,3,6,7,12,12a-hexahydro-pyrazino[1',2':1,6]pyrido[3,4-b]indole-1,4-dione] | 0.13 µg/mL (≈ 0.23 µM) | 0.23 µg/mL (≈ 0.407 µM) | –
11 | O=C1[C@H]2Cc3c([nH]c4ccccc34)[C@@H](c3ccc4c(c3)OCO4)N2C(=O)CN1[C@@H]1CCN(Cc2ccc3c(c2)OCO3)C1 [Compound 33, (6R,12aR)-6-Benzo[1,3]dioxol-5-yl-2-((R)-1-benzo[1,3]dioxol-5-ylmethyl-pyrrolidin-3-yl)-2,3,6,7,12,12a-hexahydro-pyrazino[1',2':1,6]pyrido[3,4-b]indole-1,4-dione] | 0.16 µg/mL (≈ 0.277 µM) | 0.17 µg/mL (≈ 0.294 µM) | –
12 | CC(C)(C)OC(=O)NCCN1CC[C@@H](N2CC(=O)N3[C@H](c4ccc5c(c4)OCO5)c4[nH]c5ccccc5c4C[C@@H]3C2=O)C1 [Compound 35, {2-[(R)-3-((6R,12aR)-6-Benzo[1,3]dioxol-5-yl-1,4-dioxo-3,4,6,7,12,12a-hexahydro-1H-pyrazino[1',2':1,6]pyrido[3,4-b]indol-2-yl)-pyrrolidin-1-yl]-ethyl)-carbamic acid tert-butyl ester] | 0.015 µg/mL (≈ 0.0255 µM) | 0.07 µg/mL (≈ 0.119 µM) | –
13 | O=C1[C@H]2Cc3c([nH]c4ccccc34)[C@@H](c3ccc4nsnc4c3)N2C(=O)CN1[C@@H]1CCN(Cc2ccccc2)C1 [Compound 70c, (6R,12aR)-6-Benzo[1,2,5]thiadiazol-5-yl-2-((R)-1-benzyl-pyrrolidin-3-yl)-2,3,6,7,12,12a-hexahydro-pyrazino[1',2':1,6] pyrido[3,4-b]indole-1,4-dione] | 0.15 µg/mL (≈ 0.273 µM) | 0.13 µg/mL (≈ 0.237 µM) | –
14 | O=C1[C@H]2Cc3c([nH]c4ccccc34)[C@H](c3ccc4nsnc4c3)N2C(=O)CN1[C@@H]1CCN(Cc2ccccc2)C1 [Compound 70t, (6S,12aR)-6-Benzo[1,2,5]thiadiazol-5-yl-2-((R)-1-benzyl-pyrrolidin-3-yl)-2,3,6,7,12,12a-hexahydro-pyrazino[1',2':1,6] pyrido[3,4-b]indole-1,4-dione] | 0.5 µg/mL (≈ 0.911 µM) | 0.7 µg/mL (≈ 1.28 µM) | –
15 | O=C1[C@H]2Cc3c([nH]c4ccccc34)[C@H](c3ccc(Cl)nc3)N2C(=O)CN1[C@@H]1CCN(Cc2ccccc2)C1 [Compound 84t, (6S,12aR)-2-((R)-1-Benzyl-pyrrolidin-3-yl)-6-(6-chloro-pyridin-3-yl)-2,3,6,7,12,12a-hexahydro-pyrazino[1',2':1,6] pyrido[3,4-b]indole-1,4-dione] | 1.03 µg/mL (≈ 1.96 µM) | 0.09 µg/mL (≈ 0.171 µM) | –
16 | O=C1[C@H]2Cc3c([nH]c4ccccc34)[C@H](Cc3ccccc3)N2C(=O)CN1C1CCN(Cc2ccccc2)CC1 [Compound 89t, (6S,12aR)-6-Benzyl-2-(1-benzyl-piperidin-4-yl)-2,3,6,7,12,12a-hexahydro-pyrazino[1',2':1,6]pyrido[3,4-b]indole-1,4-dione] | 2.47 µg/mL (≈ 4.76 µM) | 4.17 µg/mL (≈ 8.04 µM) | –
17 | O=C1[C@H]2Cc3c([nH]c4ccccc34)[C@@H](c3ccccc3)N2C(=O)CN1C1CCN(Cc2ccccc2)CC1 [Compound 90, (6R,12aR)-2-(1-Benzyl-piperidin-4-yl)-6-phenyl-2,3,6,7,12,12a-hexahydro-pyrazino[1',2':1,6]pyrido[3,4-b]indole-1,4-dione] | 0.3 µg/mL (≈ 0.594 µM) | 0.48 µg/mL (≈ 0.951 µM) | –
18 | Cn1ccnc1CN1CCC(N2CC(=O)N3[C@H](Cc4c([nH]c5ccccc45)[C@@H]3Cc3ccccc3)C2=O)CC1 [Compound 91t, (6S,12aR)-6-Benzyl-2-[1-(1-methyl-1H-imidazol-2-ylmethyl)-piperidin-4-yl]-2,3,6,7,12,12a-hexahydro-pyrazino-[1',2':1,6]pyrido[3,4-b]indole-1,4-dione] | 4.07 µg/mL (≈ 7.79 µM) | 4.13 µg/mL (≈ 7.9 µM) | –
